Test results: patent publication US9204640B2, “2-acyloxy-pyrrolin-4-ones” (BAYER INTELLECTUAL PROPERTY GMBH, priority 2011, dated 2015)

Columns and labels:
Assay type in all cases: in vivo
Echinocloa crus-galli = experiment: Herbicidal post-emergence action, ECHCG; conditions: 20 g/ha
In short: (§1)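 Weeds sown in sandy loam, grown in greenhouse 2–3 weeks and treated post-emergence at one-leaf stage (or BBCH 10–13, 5–10 cm) with WP/EC formulations sprayed at various dosages (600–800 l/ha water, 0.1–0.2% wetting agent). Visual rating after about 3 weeks as % activity versus untreated (100% = dead).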

Digitaria sanguinalis = experiment: Herbicidal post-emergence action, DIGSA; conditions: 20 g/ha
In short: as §1

Tetranychus urticae = experiment: Tetranychus test (TETRUR spray treatment; OP-resistant in Example 10); conditions: application rate 100 g/ha, after 5 days, bean leaf discs
In short: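 Bean leaf discs (Phaseolus vulgaris) infested with all stages of Tetranychus urticae sprayed with compound diluted in emulsifier-containing water. In the standard test, % kill scored after 5 days. The OP-resistant strain test uses the same method with scoring after a set period; 100% = all mites dead, 0% = none.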

Myzus persicae [1] = experiment: Myzus test (MYZUPE spray treatment); conditions: application rate 500 g/ha, after 5 days, Chinese cabbage leaf discs
In short: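 Chinese cabbage leaf discs carrying all stages of green peach aphid sprayed with compound diluted in emulsifier-containing water to the desired concentration. Mortality scored as % after 5 days, where 100% means all aphids dead and 0% none.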

Alopecurus myosuroides = experiment: Herbicidal post-emergence action, ALOMY; conditions: 20 g/ha
In short: as §1

Myzus persicae [2] = experiment: Myzus persicae test (MYZUPE Tau), leaf dipping; conditions: 20 ppm, 6dat
Description: Myzus Persicae Test (MYZUPE Tau) To produce a suitable preparation of active compound, 1 part by weight of active compound is mixed with the stated amount of solvent and emulsifier, and the concentrate is diluted with emulsifier-containing water to the desired concentration. Cabbage leaves (Brassica oleracea) which are heavily infested by the green peach aphid (Myzus persicae) are treated by dipping into the active compound preparation of the desired concentration. After the desired period of time, the kill in % is determined. 100% means that all of the aphids have been killed; 0% means that none of the aphids have been killed.

CCOC(=O)OC1=C(c2c(C)cc(I)cc2CC)C(=O)C2(CCC(OC)CC2)N1 (mixture of isomers) [I-b-2]
% Activity ECHCG (Echinocloa crus-galli): 70% | % Activity DIGSA (Digitaria sanguinalis): 90% | effect in % (spider mites killed) (Tetranychus urticae): 80% | effect in % (aphids killed) (Myzus persicae [1]): 100% | % Activity ALOMY (Alopecurus myosuroides): 90% | % Activity MYZUPE tau (Myzus persicae [2]): 90%
